The subject of assay [1] is peptide-pulsed T2 cells. Nature of the assay: IFN-gamma ELISPOT assay on CTLs induced with peptide-pulsed DCs. The format is cell-based, human. The conditions noted are these: CTLs from HLA-A*0201 positive donor, compared to control wells. From the text: Monocyte-derived dendritic cells (DCs) were used as antigen-presenting cells to induce cytotoxic T lymphocyte (CTL) responses against peptides presented on human leukocyte antigen (HLA). DCs were generated in vitro as described elsewhere (Nakahara S et al., Cancer Res 2003 Jul. 15, 63(14): 4112-8). Specifically, peripheral blood mononuclear cells isolated from a normal volunteer (HLA-A*0201 positive) by Ficoll-Paque plus (Pharmacia) solution were separated by adherence to a plastic tissue culture dish (Becton Dickinson) so as to enrich them as the monocyte fraction. The monocyte-enriched population was cultured in the presence of 1000 U/ml of granulocyte-macrophage colony-stimulating factor (R&D System) and 1000 U/ml of interleukin (IL)-4 (R&D System) in AIM-V Medium (Invitrogen) containing 2% heat-inactivated autologous serum (AS). After 7 days of culture, the cytokine-induced DCs were pulsed with 20 micro g/ml of each of the synthesized peptides in the presence of 3 micro g/ml of beta 2-microglobulin for 3 hr at 37 degree C. in AIM-V Medium. The generated cells appeared to express DC-associated molecules, such as CD80, CD83, CD86 and HLA class II, on their cell surfaces (data not shown). These peptide-pulsed DCs were then inactivated by X ray-irradiated (20 Gy) and mixed at a 1:20 ratio with autologous CD8+ T cells, obtained by positive selection with CD8 Positive Isolation Kit (Dynal). These cultures were set up in 48-well plates (Corning); each well contained 1.5×10^4 peptide-pulsed DCs, 3×10^5 CD8+ T cells and 10 ng/ml of IL-7 (R&D System) in 0.5 ml of AIM-V/2% AS medium. Three days later, these cultures were supplemented with IL-2 (CHIRON) to a final concentration of 20 IU/ml. On day 7 and 14, the T cells were further stimulated with the autologous peptide-pulsed DCs. The DCs were prepared each time by the same way described above. CTLs were tested against peptide-pulsed T2 cells after the 3rd round of peptide stimulation on day 21 (Tanaka H et al., Br J Cancer 2001 Jan. 5, 84(1): 94-9; Umano Y et al., Br J Cancer 2001 Apr. 20, 84(8): 1052-7; Uchida N et al., Clin Cancer Res 2004 December 15, 10(24): 8577-86; Suda T et al., Cancer Sci 2006 May, 97(5): 411-9; Watanabe T et al., Cancer Sci 2005 August, 96(8): 498-506).
(§1) To examine specific CTL activity, interferon(IFN)-gamma enzyme-linked immunospot (ELISPOT) assay and IFN-gamma enzyme-linked immunosorbent assay (ELISA) were performed. Peptide-pulsed T2 (1×10^4/well) was prepared as stimulator cells. Cultured cells in 48-well plate, CTL lines and CTL clones were used as responder cells. IFN-gamma ELISPOT assay and IFN-gamma ELISA assay were performed under manufacture procedure.

Assay [2] relates to peptide-pulsed T2 cells. Nature of the assay: IFN-gamma ELISA of CTL clones established by limiting dilution. The format is cell-based, human. The conditions noted are these: target cells pulsed with each peptide. Here is the method:
The dilutions were made to have 0.3, 1, and 3 CTLs/well in 96 round-bottomed micro titer plate (Nalge Nunc International). CTLs were cultured with 1×10^4 cells/well of 2 kinds of human B-lymphoblastoid cell lines, 30 ng/ml of anti-CD3 antibody, and 125 U/ml of IL-2 in a total of 150 micro 1/well of AIM-VMedium containing 5% AS. 50 micro 1/well of IL-2 were added to the medium 10 days later so to reach a final concentration of 125 U/ml IL-2. CTL activity was tested on the 14th day, and CTL clones were expanded using the same method as described above (Uchida N et al., Clin Cancer Res 2004 Dec. 15, 10(24): 8577-86; Suda T et al., Cancer Sci 2006 May, 97(5): 411-9; Watanabe T et al., Cancer Sci 2005 August, 96(8): 498-506).
as §1
Background: ELISA stands for enzyme-linked immunosorbent assay.

Assay [3] concerns peptide-pulsed T2 cells. Nature of the assay: IFN-gamma ELISA of expanded CTL lines. The conditions noted are these: target cells pulsed with corresponding peptide vs without peptide pulse. The format is cell-based, human. On the procedure:
CTLs were expanded in culture using the method similar to the one described by Riddell et al. (Walter E A et al., N Engl J Med 1995 Oct. 19, 333(16): 1038-44; Riddell S R et al., Nat Med 1996 February, 2(2): 216-23). A total of 5×10^4 CTLs were suspended in 25 ml of AIM-V/5% AS medium with 2 kinds of human B-lymphoblastoid cell lines, inactivated by Mitomycin C, in the presence of 40 ng/ml of anti-CD3 monoclonal antibody (Pharmingen). One day after initiating the cultures, 120 IU/ml of IL-2 were added to the cultures. The cultures were fed with fresh AIM-V/5% AS medium containing 30 IU/ml of IL-2 on days 5, 8 and 11 (Tanaka H et al., Br J Cancer 2001 Jan. 5, 84(1): 94-9; Umano Y et al., Br J Cancer 2001 Apr. 20, 84(8): 1052-7; Uchida N et al., Clin Cancer Res 2004 Dec. 15, 10(24): 8577-86; Suda T et al., Cancer Sci 2006 May, 97(5): 411-9; Watanabe T et al., Cancer Sci 2005 August, 96(8): 498-506).
as §1

The subject of assay [4] is COS7 cells transfected with SEMA5B and HLA-A*0201. Nature of the assay: Specific CTL activity against target cells expressing SEMA5B and HLA-A*0201. The format is cell-based, African green monkey. On the procedure:
as §1
The cDNA encoding an open reading frame of target genes or HLA-A*0201 was amplified by PCR. The PCR-amplified product was cloned into expression vector. The plasmids were transfected into COS7, which is HLA-A*0201-null cell line, using lipofectamine 2000 (Invitrogen) according to the manufacturer's recommended procedures. After 2 days from transfection, the transfected cells were harvested with versene (Invitrogen) and used as the stimulator cells (5×10^4 cells/well) for CTL activity assay.

“GLLTLAVYL [SEQ ID NO: 7, 9 mer peptide derived from SEMA5B, start position 1049]”: in the assay with peptide-pulsed T2 cells [1], the “Peptide-specific CTL activity (IFN-gamma production)” value (shortened to “Peptide-specific CTL activity”) is listed as “potent IFN-gamma production”.

On to “LIYGVFTTNV [SEQ ID NO: 34, 10 mer peptide derived from SEMA5B, start position 370]”, for which the “Peptide-specific CTL activity” value in the assay on peptide-pulsed T2 cells [1] is listed as “potent IFN-gamma production”. In addition, the “IFN-gamma production of CTL clones” value in the assay on peptide-pulsed T2 cells [2] is “Potent IFN-gamma production”. Besides, the “IFN-gamma production of CTL lines” value in the assay on peptide-pulsed T2 cells [3] is recorded as “potent IFN-gamma production”.

As to “LLLPSLTLLV [SEQ ID NO: 27, 10 mer peptide derived from SEMA5B, start position 69]”, in the assay with peptide-pulsed T2 cells [1], the “Peptide-specific CTL activity” value is listed as “potent IFN-gamma production”. Besides, in assay [4] (COS7 transfected with both full length SEMA5B and HLA-A*0201), the “CTL activity of CTL line against COS7 cells expressing both SEMA5B and HLA-A*0201” value is reported as “potent CTL activity”. Further, the “CTL activity of CTL line against control COS7 cells” value in assay [4] (COS7 transfected with either full length SEMA5B or HLA-A*0201) is listed as “no significant specific CTL activity was detected”. Also, in the assay on peptide-pulsed T2 cells [2], the “IFN-gamma production of CTL clones” value is recorded as “Potent IFN-gamma production”. Also, the “IFN-gamma production of CTL lines” value with peptide-pulsed T2 cells [3] is “potent IFN-gamma production”.

Regarding “LLPSLTLLV [SEQ ID NO: 5, 9 mer peptide derived from SEMA5B, start position 70]”, the “Peptide-specific CTL activity” value in the assay with peptide-pulsed T2 cells [1] is reported as “potent IFN-gamma production”. Besides, the “IFN-gamma production of CTL clones” value in the assay on peptide-pulsed T2 cells [2] is on record as “Potent IFN-gamma production”. The “IFN-gamma production of CTL lines” value in the assay with peptide-pulsed T2 cells [3] is recorded as “potent IFN-gamma production”.

Consider “MVLAGPLAV [SEQ ID NO: 8, 9 mer peptide derived from SEMA5B, start position 59; typical negative case]”, for which, in the assay on peptide-pulsed T2 cells [1], the “Peptide-specific CTL activity” value is “not shown specific IFN-gamma production”.
